# Data reported in US9023844B2, “Heterocyclylpyri (mi) dinylpyrazole as fungicidals” (Bayer Intellectual Property GmbH, priority 2011, dated 2015).
# Where two headings read alike, the source gives them in different places.
# What was measured:
# [1] = Determination of log P values by HPLC on a reverse phase column (C18), EEC-Directive 79/831 Annex V.A8 (Methods A, B, C); type: physicochemical; conditions: for chromatographic logP: reverse phase C18 HPLC column
# Description: (§1) Note on the determination of the log P values and mass detection: The stated log P values were determined in accordance with EEC-Directive 79/831 Annex V.A8 by HPLC (High Performance Liquid Chromatography) on a reverse phase column (C18). Agilent 1100 LC system; 50*4.6 Zorbax Eclipse Plus C18 1.8 micron; eluent A: acetonitrile (0.1% formic acid); eluent B: water (0.09% formic acid); linear gradient from 10% acetonitrile to 95% acetonitrile in 4.25 mins, then 95% acetonitrile for a further 1.25 mins; oven temperature 55° C.; flow rate: 2.0 mL/min. The mass detection was effected with an Agilend MSD system.
# as §1, with “HP1100;” for “Agilent 1100 LC system;”, “(0.08%” for “(0.09%”, “5%” for “10%”, “1.70 min,” for “4.25 mins,”, “1.00 min;” for “1.25 mins;”, “the Micronass ZQ2000 mass detector from Waters.” for “an Agilend MSD system.”
# Note on the determination of the log P values and mass detection: The stated log P values were determined in accordance with EEC-Directive 79/831 Annex V.A8 by UPLC (Ultra Performance Liquid Chromatography) on a reverse phase column (C18). HP1100; 50*2.1 Zorbax Eclipse Plus C18 1.8 micron; eluent A: acetonitrile (0.09% formic acid); eluent B: water (0.1% formic acid); linear gradient from 10% A to 95% A in 3.25 min; oven temperature 40° C.; flow rate: 0.8 mL/min. The mass detection was effected with the LCT Premier or SQD mass detector from Waters.
# Puccinia recondita = test: Example E: Puccinia test (wheat) / preventive; type: in vivo; conditions: in vivo
# Sphaerotheca fuliginea = test: Example A: Sphaerotheca test (cucumber) / preventive; type: in vivo
# Uromyces appendiculatus = test: Example B: Uromyces test (beans) / preventive; type: in vivo; conditions: in vivo
# Pyricularia oryzae = type: in vivo; conditions: in vivo
# Pyrenophora teres = test: Example D: Pyrenophora test (barley) / preventive; type: in vivo
# Leptosphaeria nodorum = test: Example C: Leptosphaeria test (wheat) / preventive; type: in vivo; conditions: in vivo
# [2] = Method B (HPLC, reverse phase C18)
# [3] = Method C (HPLC, reverse phase C18)
Compound,"LogP [1, 2]",efficacy (Puccinia recondita) [%],efficacy (Sphaerotheca fuliginea; in vivo) [%],efficacy (Uromyces appendiculatus) [%],efficacy (Pyricularia oryzae) [%],efficacy (Pyrenophora teres; in vivo) [%],efficacy (Leptosphaeria nodorum) [%],"chromatographic logP ([1]; Method C (HPLC, reverse phase C18), read-out: LogP)","chromatographic logP ([1]; pH 2.7, values in the synthesis examples, HPLC, reverse phase C18, read-out: log P (pH 2.7))","efficacy (Sphaerotheca fuliginea; 500 ppm of active ingredient, cucumber, preventive spray, evaluated 7 days after inoculation) [%]","efficacy (Pyrenophora teres; 500 ppm of active ingredient, barley, preventive spray, evaluated 7-9 days after inoculation) [%]","LogP [1, 3]"
CSCC(=O)Nc1cc(-c2c(-c3ccccc3)nn3c2OCCC3)ccn1 [Example 16],1.54,95,93,92,94,95,,,,,,
CC(C)=CCC(=O)Nc1cc(-c2c(-c3ccccc3)nn3c2OCCC3)ccn1 [Example 19],1.91,95,90,92,94,95,,,,,,
CCOC(=O)Nc1cc(-c2c(-c3ccc(F)cc3)nn3c2OCCC3)ccn1 [Example 23],1.66,95,,94,94,95,,,,,,
C[C@H](O)C(=O)Nc1cc(-c2c(-c3ccc(F)cc3)nn3c2OCCC3)ccn1 [Example 26],1.31,100,,72,94,100,70,,,,,
O=C(CCc1ccccc1)Nc1cc(-c2c(-c3ccc(F)cc3)nn3c2OCCC3)ccn1 [Example 29],2.2,95,,94,94,70,,,,,,
CC(C(=O)Nc1cc(-c2c(-c3ccc(F)cc3)nn3c2OCCC3)ccn1)c1ccc(F)cc1 (stereo not shown) [Example 32],2.48,100,,92,94,90,,,,,,
CC(C)=CCC(=O)Nc1cc(-c2c(-c3ccc(F)cc3)nn3c2OCCC3)ccn1 [Example 33],2.07,100,,89,94,90,,,,,,
CCOC(=O)Nc1cc(-c2c(-c3ccc(F)cc3F)nn3c2OCCC3)ccn1 [Example 38],1.72,90,,89,94,95,,,,,,
C[C@H](O)C(=O)Nc1cc(-c2c(-c3ccc(F)cc3F)nn3c2OCCC3)ccn1 [Example 41],1.34,95,,94,94,90,,,,,,
O=C(CC1CC1)Nc1cc(-c2c(-c3ccc(F)cc3F)nn3c2OCCC3)ccn1 [Example 42],1.72,95,,94,94,100,70,,,,,
CC(C(=O)Nc1cc(-c2c(-c3ccc(F)cc3F)nn3c2OCCC3)ccn1)c1ccc(F)cc1 (stereo not shown) [Example 47],2.48,95,,92,89,80,,,,,,
CC(C)=CCC(=O)Nc1cc(-c2c(-c3ccc(F)cc3F)nn3c2OCCC3)ccn1 [Example 48],2.1,95,,86,78,70,,,,,,
"CC(=O)N(C(C)=O)c1cc(-c2c(-c3ccccc3)nn3cccnc23)ccn1 [Example 56, N-Acetyl-N-[4-(2-phenylpyrazolo[1,5-a]pyrimidin-3-yl)pyridin-2-yl]acetamide]",,,,,,,,2.13,2.13,80,95,
CC(=O)N(C(C)=O)c1cc(-c2c(-c3ccc(F)cc3)nn3cccnc23)ccn1 [Example 83],,,90,,,80,,,,,,2.22
CCC(=O)Nc1cc(-c2c(-c3ccsc3)nn3c2OC[Si](C)(C)C3)ccn1 [Example 100],,,,,70,95,80,,,,,1.88
C[Si]1(C)COc2c(-c3ccnc(NC(=O)C4CC4)c3)c(-c3ccsc3)nn2C1 [Example 102],,,,,70,100,80,,,,,1.97
